Measurements: ChEMBL document CHEMBL1201861, “Genomics of Drug Sensitity in Cancer screening data, Wellcome Trust Sanger Institute”
Structures can show the parent of a compound that is named as a salt.

Tests used:
Experiment in all cases: cells
COLO-741 = assay type: functional, cell-based, Homo sapiens; conditions: Homo sapiens, COLO-741
Description: SANGER: Inhibition of human COLO-741 cell growth in a cell viability assay.

COR-L105 = assay type: functional, cell-based, Homo sapiens; conditions: Homo sapiens, COR-L105
Description: SANGER: Inhibition of human COR-L105 cell growth in a cell viability assay.

CPC-N = assay type: functional, cell-based, Homo sapiens; conditions: Homo sapiens, CPC-N
Description: SANGER: Inhibition of human CPC-N cell growth in a cell viability assay.

D-542MG = assay type: functional, cell-based, Homo sapiens; conditions: Homo sapiens, D-542MG
Description: SANGER: Inhibition of human D-542MG cell growth in a cell viability assay.

DK-MG = assay type: functional, cell-based, Homo sapiens; conditions: Homo sapiens, DK-MG
Description: SANGER: Inhibition of human DK-MG cell growth in a cell viability assay.

EFM-19 = assay type: functional, cell-based, Homo sapiens; conditions: Homo sapiens, EFM-19
Description: SANGER: Inhibition of human EFM-19 cell growth in a cell viability assay.

GMS-10 = assay type: functional, cell-based, Homo sapiens; conditions: Homo sapiens, GMS-10
Description: SANGER: Inhibition of human GMS-10 cell growth in a cell viability assay.

GP5d = assay type: functional, cell-based, Homo sapiens; conditions: Homo sapiens, GP5d
Description: SANGER: Inhibition of human GP5d cell growth in a cell viability assay.

HCC1419 = assay type: functional, cell-based, Homo sapiens; conditions: Homo sapiens, HCC1419
Description: SANGER: Inhibition of human HCC1419 cell growth in a cell viability assay.

HMV-2 cell line = assay type: functional, cell-based, Homo sapiens; conditions: Homo sapiens, HMV-2
Description: SANGER: Inhibition of human HMV-II cell growth in a cell viability assay.

HOS = assay type: functional, cell-based, Homo sapiens; conditions: Homo sapiens, HOS
Description: SANGER: Inhibition of human HOS cell growth in a cell viability assay.

HSC-4 = assay type: functional, cell-based, Homo sapiens; conditions: Homo sapiens, HSC-4
Description: SANGER: Inhibition of human HSC-4 cell growth in a cell viability assay.

IMR-5 = assay type: functional, cell-based, Homo sapiens; conditions: Homo sapiens, IMR-5
Description: SANGER: Inhibition of human IMR-5 cell growth in a cell viability assay.

K052 = assay type: functional, cell-based, Homo sapiens; conditions: Homo sapiens, K052
Description: SANGER: Inhibition of human K052 cell growth in a cell viability assay.

KOSC-2 = assay type: functional, cell-based, Homo sapiens; conditions: Homo sapiens, KOSC-2
Description: SANGER: Inhibition of human KOSC-2 cell growth in a cell viability assay.

KYSE-150 cell line = assay type: functional, cell-based, Homo sapiens; conditions: Homo sapiens, KYSE-150
Description: SANGER: Inhibition of human KYSE-150 cell growth in a cell viability assay.

KYSE-410 = assay type: functional, cell-based, Homo sapiens; conditions: Homo sapiens, KYSE-410
Description: SANGER: Inhibition of human KYSE-410 cell growth in a cell viability assay.

LC4-1 = assay type: functional, cell-based, Homo sapiens; conditions: Homo sapiens, LC4-1
Description: SANGER: Inhibition of human LC4-1 cell growth in a cell viability assay.

M059J = assay type: functional, cell-based, Homo sapiens; conditions: Homo sapiens, M059J
Description: SANGER: Inhibition of human M059J cell growth in a cell viability assay.

MDA-MB-231 = assay type: functional, cell-based, Homo sapiens; conditions: Homo sapiens, MDA-MB-231
Description: SANGER: Inhibition of human MDA-MB-231 cell growth in a cell viability assay.

MKN-1 = assay type: functional, cell-based, Homo sapiens; conditions: Homo sapiens, MKN-1
Description: SANGER: Inhibition of human MKN1 cell growth in a cell viability assay.

MKN-7 = assay type: functional, cell-based, Homo sapiens; conditions: Homo sapiens, MKN-7
Description: SANGER: Inhibition of human MKN7 cell growth in a cell viability assay.

NCI-H1563 = assay type: functional, cell-based, Homo sapiens; conditions: Homo sapiens, NCI-H1563
Description: SANGER: Inhibition of human NCI-H1563 cell growth in a cell viability assay.

NCI-H1573 = assay type: functional, cell-based, Homo sapiens; conditions: Homo sapiens, NCI-H1573
Description: SANGER: Inhibition of human NCI-H1573 cell growth in a cell viability assay.

NCI-H1793 = assay type: functional, cell-based, Homo sapiens; conditions: Homo sapiens, NCI-H1793
Description: SANGER: Inhibition of human NCI-H1793 cell growth in a cell viability assay.

NCI-H1963 = assay type: functional, cell-based, Homo sapiens; conditions: Homo sapiens, NCI-H1963
Description: SANGER: Inhibition of human NCI-H1963 cell growth in a cell viability assay.

NCI-H1993 = assay type: functional, cell-based, Homo sapiens; conditions: Homo sapiens, NCI-H1993
Description: SANGER: Inhibition of human NCI-H1993 cell growth in a cell viability assay.

OAW-42 = assay type: functional, cell-based, Homo sapiens; conditions: Homo sapiens, OAW-42
Description: SANGER: Inhibition of human OAW-42 cell growth in a cell viability assay.

PANC-08-13 = assay type: functional, cell-based, Homo sapiens; conditions: Homo sapiens, PANC-08-13
Description: SANGER: Inhibition of human PANC-08-13 cell growth in a cell viability assay.

Panc1005 = assay type: functional, cell-based, Homo sapiens; conditions: Homo sapiens, Panc1005
Description: SANGER: Inhibition of human PANC-10-05 cell growth in a cell viability assay.

RERF-LC-MS = assay type: functional, cell-based, Homo sapiens; conditions: Homo sapiens, RERF-LC-MS
Description: SANGER: Inhibition of human RERF-LC-MS cell growth in a cell viability assay.

RMG-I = assay type: functional, cell-based, Homo sapiens; conditions: Homo sapiens, RMG-I
Description: SANGER: Inhibition of human RMG-I cell growth in a cell viability assay.

Raji = assay type: functional, cell-based, Homo sapiens; conditions: Homo sapiens, Raji
Description: SANGER: Inhibition of human Raji cell growth in a cell viability assay.

SAS = assay type: functional, cell-based, Homo sapiens; conditions: Homo sapiens, SAS
Description: SANGER: Inhibition of human SAS cell growth in a cell viability assay.

SK-MEL-28 = assay type: functional, cell-based, Homo sapiens; conditions: Homo sapiens, SK-MEL-28
Description: SANGER: Inhibition of human SK-MEL-28 cell growth in a cell viability assay.

SK-MEL3 = assay type: functional, cell-based, Homo sapiens, SK-MEL-3; conditions: Homo sapiens, SK-MEL3
Description: SANGER: Inhibition of human SK-MEL-3 cell growth in a cell viability assay.

SNU-449 = assay type: functional, cell-based, Homo sapiens; conditions: Homo sapiens, SNU-449
Description: SANGER: Inhibition of human SNU-449 cell growth in a cell viability assay.

SR = assay type: functional, cell-based, Homo sapiens; conditions: Homo sapiens, SR
Description: SANGER: Inhibition of human SR cell growth in a cell viability assay.

769-P = assay type: functional, cell-based, Homo sapiens; conditions: Homo sapiens, 769-P
Description: SANGER: Inhibition of human 769-P cell growth in a cell viability assay.

BXPC-3 = assay type: functional, cell-based, Homo sapiens; conditions: Homo sapiens, BXPC-3
Description: SANGER: Inhibition of human BxPC-3 cell growth in a cell viability assay.

C32 = assay type: functional, cell-based, Homo sapiens; conditions: Homo sapiens, C32
Description: SANGER: Inhibition of human C32 cell growth in a cell viability assay.

CAL-85-1 = assay type: functional, cell-based, Homo sapiens; conditions: Homo sapiens, CAL-85-1
Description: SANGER: Inhibition of human CAL-85-1 cell growth in a cell viability assay.

U-118-MG = assay type: functional, cell-based, Homo sapiens; conditions: Homo sapiens, U-118-MG
Description: SANGER: Inhibition of human U-118-MG cell growth in a cell viability assay.

UACC-812 = assay type: functional, cell-based, Homo sapiens; conditions: Homo sapiens, UACC-812
Description: SANGER: Inhibition of human UACC-812 cell growth in a cell viability assay.

## Nc1ccn([C@@H]2O[C@H](CO)[C@@H](O)C2(F)F)c(=O)n1 [GEMCITABINE]
COLO-741
  IC50: 120 nM
COR-L105
  IC50: 29.4 nM
CPC-N
  IC50: 329 nM
D-542MG
  IC50: > 1020 nM
DK-MG
  IC50: > 1020 nM
EFM-19
  IC50: > 1020 nM
GMS-10
  IC50: > 1020 nM
GP5d
  IC50: 28.7 nM
HCC1419
  IC50: > 1020 nM
HMV-2 cell line
  IC50: 24.3 nM
HOS
  IC50: < 4 nM
HSC-4
  IC50: < 4 nM
IMR-5
  IC50: 83 nM
K052
  IC50: 137 nM
KOSC-2
  IC50: > 1020 nM
KYSE-150 cell line
  IC50: 8.47 nM
KYSE-410
  IC50: 55.9 nM
LC4-1
  IC50: 74.7 nM
M059J
  IC50: 21.1 nM
MDA-MB-231
  IC50: 27.8 nM
MKN-1
  IC50: 78.4 nM
MKN-7
  IC50: > 1020 nM
NCI-H1563
  IC50: > 1020 nM
NCI-H1573
  IC50: > 1020 nM
NCI-H1793
  IC50: 224 nM
NCI-H1963
  IC50: > 1020 nM
NCI-H1993
  IC50: > 1020 nM
OAW-42
  IC50: 92.1 nM
PANC-08-13
  IC50: > 1020 nM
Panc1005
  IC50: 15.4 nM
RERF-LC-MS
  IC50: 177 nM
RMG-I
  IC50: > 1020 nM
Raji
  IC50: 431 nM
SAS
  IC50: 20.5 nM
SK-MEL-28
  IC50: > 1020 nM
SK-MEL3
  IC50: 105 nM
SNU-449
  IC50: 13.8 nM
SR
  IC50: 2.12 nM
769-P
  IC50: < 4 nM
BXPC-3
  IC50: 36.9 nM
C32
  IC50: > 1020 nM
CAL-85-1
  IC50: 145 nM
U-118-MG
  IC50: > 1020 nM
UACC-812
  IC50: > 1020 nM

## O=C(O)c1ccc(-c2c[nH]c3ncc(-c4ccccc4)cc23)cc1C1CCCC1 [GSK-650394]
COLO-741
  IC50: > 16000 nM
COR-L105
  IC50: > 16000 nM
CPC-N
  IC50: 10300 nM
D-542MG
  IC50: > 16000 nM
DK-MG
  IC50: > 16000 nM
EFM-19
  IC50: > 16000 nM
GMS-10
  IC50: > 16000 nM
GP5d
  IC50: > 16000 nM
HCC1419
  IC50: > 16000 nM
HMV-2 cell line
  IC50: 7510 nM
HOS
  IC50: 1970 nM
HSC-4
  IC50: > 16000 nM
IMR-5
  IC50: 9190 nM
K052
  IC50: > 16000 nM
KOSC-2
  IC50: > 16000 nM
KYSE-150 cell line
  IC50: 10400 nM
KYSE-410
  IC50: > 16000 nM
LC4-1
  IC50: > 16000 nM
M059J
  IC50: > 16000 nM
MDA-MB-231
  IC50: > 16000 nM
MKN-1
  IC50: 9190 nM
MKN-7
  IC50: > 16000 nM
NCI-H1563
  IC50: > 16000 nM
NCI-H1573
  IC50: > 16000 nM
NCI-H1793
  IC50: > 16000 nM
NCI-H1963
  IC50: > 16000 nM
NCI-H1993
  IC50: > 16000 nM
OAW-42
  IC50: > 16000 nM
PANC-08-13
  IC50: > 16000 nM
Panc1005
  IC50: 11400 nM
RERF-LC-MS
  IC50: > 16000 nM
RMG-I
  IC50: > 16000 nM
Raji
  IC50: > 16000 nM
SAS
  IC50: > 16000 nM
SK-MEL-28
  IC50: > 16000 nM
SK-MEL3
  IC50: > 16000 nM
SNU-449
  IC50: > 16000 nM
SR
  IC50: > 16000 nM
769-P
  IC50: 4890 nM
BXPC-3
  IC50: > 16000 nM
C32
  IC50: > 16000 nM
CAL-85-1
  IC50: > 16000 nM
U-118-MG
  IC50: > 16000 nM
UACC-812
  IC50: > 16000 nM

## COC1=CC(c2cc3ccccc3[nH]2)=N/C1=C\c1[nH]c(C)cc1C [OBATOCLAX MESYLATE]
COLO-741
  IC50: 316 nM
COR-L105
  IC50: 322 nM
CPC-N
  IC50: 1980 nM
D-542MG
  IC50: 170 nM
DK-MG
  IC50: 710 nM
EFM-19
  IC50: 124 nM
GMS-10
  IC50: 2580 nM
GP5d
  IC50: 225 nM
HCC1419
  IC50: 1830 nM
HMV-2 cell line
  IC50: 52.4 nM
HOS
  IC50: 34.7 nM
HSC-4
  IC50: 667 nM
IMR-5
  IC50: 32.4 nM
K052
  IC50: 940 nM
KOSC-2
  IC50: 9630 nM
KYSE-150 cell line
  IC50: 40.1 nM
KYSE-410
  IC50: 98 nM
LC4-1
  IC50: 514 nM
M059J
  IC50: 1360 nM
MDA-MB-231
  IC50: 801 nM
MKN-1
  IC50: 304 nM
MKN-7
  IC50: 1890 nM
NCI-H1563
  IC50: > 16000 nM
NCI-H1573
  IC50: 3200 nM
NCI-H1793
  IC50: > 16000 nM
NCI-H1963
  IC50: 1050 nM
NCI-H1993
  IC50: > 16000 nM
OAW-42
  IC50: 215 nM
PANC-08-13
  IC50: 1340 nM
Panc1005
  IC50: 115 nM
RERF-LC-MS
  IC50: 1060 nM
RMG-I
  IC50: 782 nM
Raji
  IC50: 1020 nM
SAS
  IC50: 273 nM
SK-MEL-28
  IC50: 1230 nM
SK-MEL3
  IC50: < 62.5 nM
SNU-449
  IC50: 208 nM
SR
  IC50: < 62.5 nM
769-P
  IC50: < 62.5 nM
BXPC-3
  IC50: 74.6 nM
C32
  IC50: 452 nM
CAL-85-1
  IC50: 18.3 nM
U-118-MG
  IC50: 409 nM
UACC-812
  IC50: 11700 nM
